Results: US20260226073A1 (AURIGENE ONCOLOGY LIMITED, priority 2023, published 2026)
pEC50, pIC50: −log10 of the molar value.

Assays:
[1] = biological target: T1, human recombinant CBL-b (human Biotin CBL-b recombinant protein a.a. 39-426) (Homo sapiens, UniProt Q13191); assay: Biochemical assay for CBL-b inhibition (ligand displacement TR-FRET); assay type: binding; conditions: 50 nM CBL-b, 0.3 μM Bodipy FL-Probe, read-out: IC50 (CBL-b inhibition, group)
T1 construct: human Biotin CBL-b recombinant protein a.a; 39-426; Biotin (biotinylated); made in house
Outline: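 Ligand-displacement TR-FRET: 0.3 μM Bodipy FL probe competes with compound for 50 nM biotin-CBL-b (aa 39-426) after a 60 min RT compound pre-incubation; terbium-streptavidin detection, 60 min each step. Dose-response sigmoidal fitting gave IC50 and % maximum inhibition.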

[2] = system: NFAT signaling pathway in Jurkat NFAT reporter cells; assay: Jurkat NFAT reporter assay; assay type: cell-based; conditions: Homo sapiens, 30 min with compound, then soluble anti-human CD3/CD28 antibody for 6 hours, luciferase readout, read-out: EC50 (Group)
Experimental: A human T lymphocyte Jurkat reporter cell line was further used to assess activation of the nuclear factor of activated T-cells (NFAT) signaling pathway by Cbl-b inhibitors. The reporter cell line is a genetically engineered Jurkat T cell line that expresses a luciferase reporter driven by an NFAT-response element (NFAT-RE). The Cbl-b inhibitor was incubated with 1×10^5 Jurkat NFAT reporter cells per well for 30 minutes. Subsequently, cells were stimulated with soluble anti-human CD3/CD28 antibody for 6 hours resulting in NFAT-RE-mediated luminescence. The bioluminescent signal is detected and quantified using Bio-Glo™ Luciferase Assay System. Readouts were reported as fold change over baseline. Here, baseline was the measurement obtained from Jurkat NFAT reporter cells stimulated with anti-CD3 antibody and anti-CD28 antibody, where the cells were not incubated with a Cbl-b inhibitor.

T1 sequence (Q13191 39-426): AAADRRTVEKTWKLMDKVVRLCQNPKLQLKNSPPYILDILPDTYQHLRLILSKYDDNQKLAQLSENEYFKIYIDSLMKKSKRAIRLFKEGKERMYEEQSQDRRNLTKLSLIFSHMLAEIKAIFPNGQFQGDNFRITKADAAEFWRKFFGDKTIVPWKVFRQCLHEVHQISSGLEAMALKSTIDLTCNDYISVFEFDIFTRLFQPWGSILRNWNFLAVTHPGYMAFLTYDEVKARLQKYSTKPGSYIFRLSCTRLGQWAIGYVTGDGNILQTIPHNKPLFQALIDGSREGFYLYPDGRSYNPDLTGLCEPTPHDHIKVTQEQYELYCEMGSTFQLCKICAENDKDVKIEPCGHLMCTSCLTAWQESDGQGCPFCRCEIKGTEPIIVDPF

| pIC50 [1] | pEC50 [2] | Structure (SMILES) |
| --- | --- | --- |
| > 7.10 | > 6.52 | C[C@@H]1C[C@H](C)CN(Cc2cc(N3Cc4ccc([C@@H](C)Cc5nncn5C)cc4C3=O)nc(C(F)(F)F)c2)C1 (single isomer, unassigned) [Compound 86] |
| 6.52 to 7.10 | 6.00 to 6.52 | C[C@@H]1C[C@H](C)CN(Cc2cc(N3Cc4ccc([C@H](C)Cc5nncn5C)cc4C3=O)nc(C(F)(F)F)c2)C1 (single isomer, unassigned) [Compound 87] |
| > 7.10 | > 6.52 | C[C@H]1CCCN(Cc2cc(Cl)nc(N3Cc4ccc([C@H](C)Cc5nncn5C)cc4C3=O)c2)C1 (single isomer, unassigned) [Compound 90] |
| > 7.10 | > 6.52 | C[C@H]1CCCN(Cc2cc(Cl)nc(N3Cc4ccc([C@@H](C)Cc5nncn5C)cc4C3=O)c2)C1 (single isomer, unassigned) [Compound 91] |
| > 7.10 | > 6.52 | CC(NC1CCCC1)c1cc(Cl)nc(N2Cc3ccc(-c4ccc(Cl)cc4-c4nncn4C)cc3C2=O)c1 (single isomer, unassigned) [Compound 104, 6-(4-Chloro-2-(4-methyl-4H-1,2,4-triazol-3-yl)phenyl)-2-(6-chloro-4-(1-(cyclo-pentylamino)ethyl)pyridin-2-yl)isoindolin-1-one] |
| > 7.10 | > 6.52 | C[C@H](NC1CCCC1)c1cc(Cl)nc(N2Cc3ccc(-c4ccc(Cl)cc4-c4nncn4C)cc3C2=O)c1 (single isomer, unassigned) [Compound 105, 6-(4-Chloro-2-(4-methyl-4H-1,2,4-triazol-3-yl)phenyl)-2-(6-chloro-4-(1-(cyclo-pentylamino)ethyl)pyridin-2-yl)isoindolin-1-one] |
| > 7.10 | > 6.52 | C[C@@H](NCc1cc(Cl)nc(N2Cc3ccc(-c4ccc(Cl)cc4-c4nncn4C)cc3C2=O)c1)C1CC1 (single isomer, unassigned) [Compound 108, 6-(4-Chloro-2-(4-methyl-4H-1,2,4-triazol-3-yl)phenyl)-2-(6-chloro-4-(((1-cyclo-propylethyl)amino)methyl)pyridin-2-yl)isoindolin-1-one] |
| > 7.10 | > 6.52 | C[C@H](NCc1cc(Cl)nc(N2Cc3ccc(-c4ccc(Cl)cc4-c4nncn4C)cc3C2=O)c1)C1CC1 (single isomer, unassigned) [Compound 109, 6-(4-Chloro-2-(4-methyl-4H-1,2,4-triazol-3-yl)phenyl)-2-(6-chloro-4-(((1-cyclo-propylethyl)amino)methyl)pyridin-2-yl)isoindolin-1-one] |
| > 7.10 | > 6.52 | C[C@@H](NCC1CC1)c1cc(Cl)nc(N2Cc3ccc(-c4ccc(Cl)cc4-c4nncn4C)cc3C2=O)c1 (single isomer, unassigned) [Compound 110, 6-(4-Chloro-2-(4-methyl-4H-1,2,4-triazol-3-yl)phenyl)-2-(6-chloro-4-(1-((cyclo-propylmethyl)amino)ethyl)pyridin-2-yl)isoindolin-1-one] |
| > 7.10 | > 6.52 | C[C@H](NCC1CC1)c1cc(Cl)nc(N2Cc3ccc(-c4ccc(Cl)cc4-c4nncn4C)cc3C2=O)c1 (single isomer, unassigned) [Compound 111, 6-(4-Chloro-2-(4-methyl-4H-1,2,4-triazol-3-yl)phenyl)-2-(6-chloro-4-(1-((cyclo-propylmethyl)amino)ethyl)pyridin-2-yl)isoindolin-1-one] |
| > 7.10 | 6.00 to 6.52 | Cn1cnnc1-c1cc(Cl)ccc1-c1ccc2c(c1)C(=O)N(c1cc(CNC[C@@H]3CCCO3)cc(Cl)n1)C2 (single isomer, unassigned) [Compound 123, 6-(4-Chloro-2-(4-methyl-4H-1,2,4-triazol-3-yl)phenyl)-2-(6-chloro-4-((((tetra-hydrofuran-2-yl)methyl)amino)methyl)pyridin-2-yl)isoindolin-1-one] |
| > 7.10 | > 6.52 | Cn1cnnc1-c1cc(Cl)ccc1-c1ccc2c(c1)C(=O)N(c1cc(CNC[C@H]3CCCO3)cc(Cl)n1)C2 (single isomer, unassigned) [Compound 124, 6-(4-Chloro-2-(4-methyl-4H-1,2,4-triazol-3-yl)phenyl)-2-(6-chloro-4-((((tetra-hydrofuran-2-yl)methyl)amino)methyl)pyridin-2-yl)isoindolin-1-one] |
| > 7.10 | > 6.52 | Cc1cc([C@H](C)NC2CCCC2)cc(N2Cc3ccc(-c4ccc(Cl)cc4-c4nncn4C)cc3C2=O)n1 (single isomer, unassigned) [Compound 125, 6-(4-Chloro-2-(4-methyl-4H-1,2,4-triazol-3-yl)phenyl)-2-(4-(1-(cyclopentyl-amino)ethyl)-6-methylpyridin-2-yl)isoindolin-1-one] |
| > 7.10 | > 6.52 | Cc1cc([C@@H](C)NC2CCCC2)cc(N2Cc3ccc(-c4ccc(Cl)cc4-c4nncn4C)cc3C2=O)n1 (single isomer, unassigned) [Compound 126, 6-(4-Chloro-2-(4-methyl-4H-1,2,4-triazol-3-yl)phenyl)-2-(4-(1-(cyclopentyl-amino)ethyl)-6-methylpyridin-2-yl)isoindolin-1-one] |
| > 7.10 | 6.00 to 6.52 | C[C@@H](Cc1nncn1C)c1ccc2c(c1)C(=O)N(c1cc(CNCC3CC3)cc(Cl)n1)C2 (single isomer, unassigned) [Compound 160] |
| > 7.10 | 6.00 to 6.52 | C[C@H](Cc1nncn1C)c1ccc2c(c1)C(=O)N(c1cc(CNCC3CC3)cc(Cl)n1)C2 (single isomer, unassigned) [Compound 161] |
| > 7.10 | 6.00 to 6.52 | C[C@@H](Cc1nncn1C)c1ccc2c(c1)C(=O)N(c1cc(CNCCC(F)(F)F)cc(Cl)n1)C2 (single isomer, unassigned) [Compound 163] |
| > 7.10 | 5.00 to 6.00 | C[C@H](Cc1nncn1C)c1ccc2c(c1)C(=O)N(c1cc(CNCCC(F)(F)F)cc(Cl)n1)C2 (single isomer, unassigned) [Compound 164] |
| > 7.10 | > 6.52 | C[C@@H](NCC1CC1)c1cc(Cl)nc(N2Cc3ccc(C4(Cc5nncn5C)COC4)cc3C2=O)c1 (single isomer, unassigned) [Compound 166] |
| > 7.10 | > 6.52 | C[C@H](NCC1CC1)c1cc(Cl)nc(N2Cc3ccc(C4(Cc5nncn5C)COC4)cc3C2=O)c1 (single isomer, unassigned) [Compound 167] |
| > 7.10 | > 6.52 | C[C@H](Cc1nncn1C)c1ccc2c(c1)C(=O)N(c1cc(CNCC3CCC3)cc(Cl)n1)C2 (single isomer, unassigned) [Compound 170] |
| > 7.10 | > 6.52 | C[C@@H](Cc1nncn1C)c1ccc2c(c1)C(=O)N(c1cc(CNCC3CCC3)cc(Cl)n1)C2 (single isomer, unassigned) [Compound 171] |
| > 7.10 | > 6.52 | C[C@H]1CCCN(Cc2cc(Cl)nc(N3Cc4ccc([C@]5(Cc6nncn6C)C[C@@H](C#N)C5)cc4C3=O)c2)C1 (single isomer, unassigned) [Compound 179] |
| > 7.10 | 6.00 to 6.52 | C[C@H]1CCCN(Cc2cc(Cl)nc(N3Cc4ccc([C@H](Cc5nncn5C)C(F)(F)F)cc4C3=O)c2)C1 (single isomer, unassigned) [Compound 181] |
| > 7.10 | 5.00 to 6.00 | Cn1cnnc1CC1(c2ccc3c(c2)C(=O)N(c2cc(CNC[C@H]4CCCO4)cc(Cl)n2)C3)COC1 (single isomer, unassigned) [Compound 195] |
| > 7.10 | > 6.52 | Cn1cnnc1CC1(c2ccc3c(c2)C(=O)N(c2cc(CNC[C@@H]4CCCO4)cc(Cl)n2)C3)COC1 (single isomer, unassigned) [Compound 196] |
| > 7.10 | > 6.52 | CC(NCC1CC1(F)F)c1cc(Cl)nc(N2Cc3ccc(C4(Cc5nncn5C)COC4)cc3C2=O)c1 (single isomer, unassigned) [Compound 206, 2-(6-Chloro-4-(1-(((2,2-difluorocyclopropyl)methyl)amino)ethyl)pyridin-2-yl)-6-(3-((4-methyl-4H-1,2,4-triazol-3-yl)methyl)oxetan-3-yl)isoindolin-1-one] |
|  | 6.00 to 6.52 | CC1CCC(C)N(Cc2cc(N3Cc4ccc(C5(Cc6nncn6C)COC5)cc4C3=O)nc(C(F)(F)F)c2)C1 (centres unmarked) [Compound 93, 2-(4-((2,5-Dimethylpiperidin-1-yl)methyl)-6-(trifluoromethyl)pyridin-2-yl)-6-(3-((4-methyl-4H-1,2,4-triazol-3-yl)methyl)oxetan-3-yl)isoindolin-1-one] |
| 6.52 to 7.10 |  | CN(CCC(F)(F)F)Cc1cc(Cl)nc(N2Cc3ccc(C4(Cc5nncn5C)COC4)cc3C2=O)c1 [Compound 340, 2-(6-Chloro-4-((methyl(3,3,3-trifluoropropyl)amino)methyl)-pyridin-2-yl)-6-(3-((4-methyl-4H-1,2,4-triazol-3-yl)methyl)oxetan-3-yl)isoindolin-1-one] |
